A word on the ΔTm: it is the shift of the melting midpoint relative to a reference. As a reminder, the MIC is the lowest concentration that inhibits growth of the organism.

For assay [1], the system named is Nucleic Acid. Kind of assay: Binding affinity to 5'-GCGATATATGCG-3' DNA sequence in PBS buffer of pH 7.4 assessed as change in melting temperature by UV-VIS spectrophotometric analysis. It is filed as nucleic-acid assay.
Assay [2] concerns Nucleic Acid. Briefly: Binding affinity to 5'-GCGATATATGCG-3' DNA sequence in PBS buffer of pH 7.4 assessed as increase in melting temperature by UV-VIS spectrophotometric analysis. It counts as nucleic-acid assay.
In assay [3] the test system is Staphylococcus aureus. Briefly: Antibacterial activity against Staphylococcus aureus at 200 uM by resazurine microtiter assay. It counts as functional. Details: scale not given here. In general terms: Alamar Blue is a resazurin reagent that responds to reducing activity.
The next assay has as its system Mycolicibacterium aurum. Briefly: Antimycobacterial activity against Mycobacterium aurum at 37 degC using Mueller-Hinton broth by resazurine microtiter assay. It is filed as functional.
Assay [4] deals with Staphylococcus aureus. Kind of assay: Antibacterial activity against Staphylococcus aureus by resazurine microtiter assay. It counts as functional.
Assay [5] has as its system Staphylococcus aureus. Briefly: Antibacterial activity against Staphylococcus aureus isolate 2 by resazurine microtiter assay. It is filed as functional.
The subject of a further assay is Candida albicans. Briefly: Antifungal activity against Candida albicans by resazurine microtiter assay. It counts as functional.
Assay [6] relates to Staphylococcus aureus. Briefly: Antibacterial activity against Staphylococcus aureus isolate 1 by resazurine microtiter assay. It is filed as functional.
The test system of a further assay is Enterococcus faecalis. Briefly: Antibacterial activity against Streptococcus faecalis by resazurine microtiter assay. It is filed as functional.
Another assay concerns Aspergillus niger. Kind of assay: Antifungal activity against Aspergillus niger by resazurine microtiter assay. It counts as functional.

Converted amounts (≈) assume the structure as drawn. Where only a bound is given, the exact number is not on record here.

On to `COc1cccc(C(=O)Nc2ccc(C(=O)Nc3cc(C(=O)Nc4cc(C(=O)NCCN5CCOCC5)n(C)c4)n(C)c3)cc2)c1`, for which the shift in melting temperature (ΔTm) in the assay on Nucleic Acid [1] worked out at 10 °C.

`CCC(C)n1cc(NC(=O)c2cc(NC(=O)c3ccc(/C=C/c4cnc5ccccc5c4)cc3)cn2C)cc1C(=O)NCCN1CCOCC1` (stereo not given): the ΔTm in the assay with Nucleic Acid [2] came to 0 °C. Also, the Activity with Staphylococcus aureus [3] was found to be 0.3%.

Consider `Cn1cc(NC(=O)c2cc(NC(=O)c3ccc(NC(=O)c4cnc5ccccc5c4)cc3)cn2C)cc1C(=O)NCCN1CCOCC1`, for which, in the assay with Nucleic Acid [1], the ΔTm came to 17 °C.

Take `COc1ccc(/C=C/c2ccc(C(=O)Nc3cc(C(=O)Nc4cc(C(=O)NCCN5CCOCC5)n(C(C)C)c4)n(C)c3)nc2)cc1`: the values for the minimal inhibitory concentration (MIC) in the assay on Mycolicibacterium aurum and against Staphylococcus aureus [4] were 8 µM (≈ 5.12 µg/mL) and 4 µM (≈ 2.56 µg/mL), respectively. The thermal shift (ΔTm) with Nucleic Acid [2] is 16 °C. In the assay with Staphylococcus aureus [3], the Activity turned out to be 8.5%.

Regarding `COc1cccc(/N=N/c2ccc(C(=O)Nc3cc(C(=O)Nc4cc(C(=O)NCCN5CCOCC5)n(C)c4)n(C)c3)cc2)c1`, the thermal shift (ΔTm) in the assay on Nucleic Acid [1] came out at 1 °C.

In the case of `CC(C)n1cc(NC(=O)c2ccc(/C=C/c3cnc4ccccc4c3)cc2)cc1C(=O)Nc1cc(C(=O)NCCN2CCOCC2)n(C)c1`, the minimal inhibitory concentration (MIC) was 2 µM (≈ 1.32 µg/mL) in the assay on Mycolicibacterium aurum and < 1 µM against Staphylococcus aureus [4]. The thermal shift (ΔTm) with Nucleic Acid [2] is 18 °C. The Activity with Staphylococcus aureus [3] amounted to 2.3%.

Regarding `CCC(C)n1cc(NC(=O)c2cc(NC(=O)c3ccc(/C=C/c4ccc(OC)cc4)cn3)cn2C)cc1C(=O)NCCN1CCOCC1` (stereo not given), the MIC in the assay on Mycolicibacterium aurum and in the assay with Staphylococcus aureus [4] was 16 µM (≈ 10.5 µg/mL) throughout. The thermal shift (ΔTm) in the assay with Nucleic Acid [2] turned out to be 13 °C. In the assay with Staphylococcus aureus [3], this molecule came in with an Activity of 2.8%.

Turning to `COc1cccc(/C=C/c2ccc(C(=O)Nc3cc(C(=O)Nc4cc(C(=O)NCCN5CCOCC5)n(C)c4)n(C)c3)cc2)c1`, the minimal inhibitory concentration (MIC) in the assay with Staphylococcus aureus [5] is 25 µM (≈ 15.3 µg/mL); with Candida albicans, 100 µM (≈ 61.1 µg/mL); in the assay on Staphylococcus aureus [6], 12.5 µM (≈ 7.63 µg/mL); with Enterococcus faecalis, 6.25 µM (≈ 3.82 µg/mL); with Aspergillus niger, 50 µM (≈ 30.5 µg/mL).

Consider `Cn1cc(NC(=O)c2cc(NC(=O)c3ccc(/C=C/c4cnc5ccccc5c4)cc3)cn2C)cc1C(=O)NCCN1CCOCC1` [MGB-BP-3], for which the MIC against Staphylococcus aureus [5] was found to be 12.5 µM (≈ 7.9 µg/mL); against Candida albicans, 25 µM (≈ 15.8 µg/mL); in the assay on Staphylococcus aureus [6], 3.1 µM (≈ 1.96 µg/mL); against Enterococcus faecalis, 25 µM (≈ 15.8 µg/mL); in the assay with Aspergillus niger it was 50 µM (≈ 31.6 µg/mL). Further, the ΔTm was determined as 18 °C in the assay on Nucleic Acid [1] and 19 °C in the assay with Nucleic Acid [2].

On to `Cn1cc(NC(=O)c2cc(NC(=O)c3ccc(/N=N/c4cnc5ccccc5c4)cc3)cn2C)cc1C(=O)NCCN1CCOCC1`, for which the MIC with Staphylococcus aureus [5] was > 100 µM; against Candida albicans it was 25 µM (≈ 15.8 µg/mL); against Staphylococcus aureus [6], > 100 µM; against Enterococcus faecalis, > 100 µM; against Aspergillus niger, 50 µM (≈ 31.7 µg/mL). Also, the thermal shift (ΔTm) with Nucleic Acid [1] came out at 17 °C.

As to `CN(C)c1ccc(/C=C/c2ccc(C(=O)Nc3cc(C(=O)Nc4cc(C(=O)NCCN5CCOCC5)n(C)c4)n(C)c3)cc2)cc1`, the MIC against Staphylococcus aureus [5] was > 100 µM; against Candida albicans, 100 µM (≈ 62.4 µg/mL); against Staphylococcus aureus [6], > 100 µM; with Enterococcus faecalis, > 100 µM; against Aspergillus niger, > 100 µM. The shift in melting temperature (ΔTm) with Nucleic Acid [1] amounted to 2 °C.

`CN(C)c1ccc(C(=O)Nc2ccc(C(=O)Nc3cc(C(=O)Nc4cc(C(=O)NCCN5CCOCC5)n(C)c4)n(C)c3)cc2)cc1`: in the assay on Nucleic Acid [1], the ΔTm was 18 °C.

Turning to `CCC(C)n1cc(NC(=O)c2ccc(/C=C/c3ccc(OC)cc3)cn2)cc1C(=O)Nc1cc(C(=O)NCCN2CCOCC2)n(C)c1` (stereo not given), the minimal inhibitory concentration (MIC) against Mycolicibacterium aurum is 31 µM (≈ 20.3 µg/mL); with Staphylococcus aureus [4], 8 µM (≈ 5.23 µg/mL). For the same molecule, the ΔTm in the assay with Nucleic Acid [2] is 16 °C. This molecule showed an Activity in the assay on Staphylococcus aureus [3] of 3.2%.

In the case of `COc1ccc(/C=C/c2ccc(C(=O)Nc3cc(C(=O)Nc4cc(C(=O)NCCN5CCOCC5)n(C)c4)n(C)c3)nc2)cc1`, the ΔTm in the assay with Nucleic Acid [2] was 16 °C.

Consider `CN(C)c1ccc(/N=N/c2ccc(C(=O)Nc3cc(C(=O)Nc4cc(C(=O)NCCN5CCOCC5)n(C)c4)n(C)c3)cc2)cc1`, for which the ΔTm in the assay with Nucleic Acid [1] came out at 8 °C.

With `COc1ccc(/C=C/c2ccc(C(=O)Nc3cc(C(=O)Nc4cc(C(=O)NCCN5CCOCC5)n(C)c4)n(C(C)C)c3)nc2)cc1`, the minimal inhibitory concentration (MIC) stood at 8 µM (≈ 5.12 µg/mL) against Mycolicibacterium aurum and 16 µM (≈ 10.2 µg/mL) in the assay with Staphylococcus aureus [4]. The ΔTm with Nucleic Acid [2] was determined as 19 °C. Besides, the Activity in the assay on Staphylococcus aureus [3] is recorded as 6.7%.

With `CC(C)n1cc(NC(=O)c2cc(NC(=O)c3ccc(/C=C/c4cnc5ccccc5c4)cc3)cn2C)cc1C(=O)NCCN1CCOCC1`, the results for the minimal inhibitory concentration (MIC) against Mycolicibacterium aurum and against Staphylococcus aureus [4] were 2 µM (≈ 1.32 µg/mL) and < 1 µM, respectively. In addition, in the assay with Nucleic Acid [2], the thermal shift (ΔTm) stood at 10 °C. Besides, in the assay with Staphylococcus aureus [3], the Activity came out at 0.8%.

With `CCC(C)n1cc(NC(=O)c2ccc(/C=C/c3cnc4ccccc4c3)cc2)cc1C(=O)Nc1cc(C(=O)NCCN2CCOCC2)n(C)c1` (stereo not given), the minimal inhibitory concentration (MIC) with Mycolicibacterium aurum is 2 µM (≈ 1.35 µg/mL); in the assay on Staphylococcus aureus [4], < 1 µM. Besides, the ΔTm in the assay with Nucleic Acid [2] stood at 15 °C. Also, in the assay on Staphylococcus aureus [3], the Activity came to 2.9%.

The values are drawn from ChEMBL document CHEMBL1909638, “Amide isosteres in structure-activity studies of antibacterial minor groove binders” (2011).
